Source: patent US20240216344A1, “THIAZOLIDINEDIONE ANALOGS FOR THE TREATMENT OF NAFLD AND METABOLIC DISEASES” (Cirius Therapeutics, Inc., priority 2019, published 2024)
Read-outs that look alike come from different tables or passages of the source.

Legend:
[1] = tested on: patients with NASH; conditions: cited from earlier work
[2] = tested on: patients with NASH; conditions: cited from earlier work; remark: listed apart in the source
[3] = target: T1, PPARγ (Homo sapiens, UniProt P37231); assay: Relative binding affinity for PPARγ (FIG. 7)
T1 sequence (P37231 1-505): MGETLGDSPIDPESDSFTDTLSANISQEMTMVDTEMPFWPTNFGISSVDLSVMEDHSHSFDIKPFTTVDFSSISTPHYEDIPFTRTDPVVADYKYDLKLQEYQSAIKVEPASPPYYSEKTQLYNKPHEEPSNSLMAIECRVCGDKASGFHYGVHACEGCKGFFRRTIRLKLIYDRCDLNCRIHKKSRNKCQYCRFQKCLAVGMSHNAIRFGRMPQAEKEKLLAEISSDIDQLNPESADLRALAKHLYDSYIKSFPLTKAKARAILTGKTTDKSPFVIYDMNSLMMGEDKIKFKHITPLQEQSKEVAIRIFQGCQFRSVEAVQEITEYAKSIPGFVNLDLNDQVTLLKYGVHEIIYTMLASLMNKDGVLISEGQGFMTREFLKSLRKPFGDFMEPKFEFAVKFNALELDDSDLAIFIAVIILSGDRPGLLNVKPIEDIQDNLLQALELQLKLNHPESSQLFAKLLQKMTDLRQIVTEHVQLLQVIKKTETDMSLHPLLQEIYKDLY

[4] = target: T2, MPC (Homo sapiens, UniProt O95563+Q9Y5U8); assay: Relative binding affinity for the MPC (FIG. 8)
T2 sequence (Q9Y5U8 1-109): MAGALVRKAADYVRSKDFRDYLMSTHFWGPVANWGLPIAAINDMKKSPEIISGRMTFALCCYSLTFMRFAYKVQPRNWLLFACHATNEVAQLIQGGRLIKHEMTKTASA
T2 sequence (O95563 1-127): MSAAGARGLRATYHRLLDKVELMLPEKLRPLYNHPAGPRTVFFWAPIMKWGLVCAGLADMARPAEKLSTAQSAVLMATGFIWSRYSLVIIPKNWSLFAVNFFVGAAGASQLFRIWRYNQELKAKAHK

[5] = Exposure of parent and metabolite; bioavailability of potassium salt vs free acid; conditions: in vivo
[6] = tested on: patients with NASH; assay: Meta-analysis of 17 NASH clinical trials: change from baseline in LFTs and biomarkers by study arm, composite outcome; type: in vivo, human; conditions: 17 NASH clinical trials
Protocol: Meta-regressions of NASH clinical trials were performed to examine associations between biomarker and histological changes within treatment groups, and to additionally examine associations between treatment effects on biomarkers and on liver histology. Trials that met the following criteria were included: • Randomized controlled clinical trial • Paired biopsies performed at baseline and follow-up, scored using the NASH CRN system.
• Published results at baseline, follow-up, or changes from baseline for any the following liver injury markers or biomarkers: alanine aminotransferase (ALT), aspartate aminotransferase (AST), alkaline phosphatase, hemoglobin A1c (HbA1c), gamma-glutamyltransferase (GGT), insulin, cytokeratin-18 (CK-18), or Enhanced Liver Fibrosis (ELF) score. Variables selected were based on variables whose change was commonly reported in multiple studies. • Changes in histological scores for ballooning, inflammation, steatosis, and fibrosis, or the pre-determined endpoints of NASH resolution without worsening fibrosis or improvement in fibrosis with no worsening of NASH.
All results from a search of PubMed for the keywords (“nonalcoholic steatohepatitis” or “non-alcoholic steatohepatitis”) and (“clinical trial” or “randomized”) and filtered for “Clinical Trial” were reviewed. EudraCT and ClinicalTrials.gov were searched for the keyword “nonalcoholic steatohepatitis” with results further filtered for phase 2 or 3, interventional, terminated or completed trials. These three sources returned 265 (PubMed), 153 (ClinicalTrials.gov), and 56 (EudraCT) results, which were each individually reviewed for inclusion in the analysis. Data extracted by one analyst from each source that included means and SDs at baseline, end of study, and changes from baseline to end of study for continuous variables were verified and corrected by a second analyst. Where SDs were not available, any provided estimate of variation was used to derive the SD where possible; a plot-digitizer program was used where data were presented in figures only. Data for dichotomous endpoints were extracted as the number of subjects with the event and corresponding sample size.
Random effects weighted least squares meta-regressions with inverse variance weighting were used to examine the association of changes in ALT, AST, CK-18, HbA1c, fasting insulin levels, ELF, alkaline phosphatase and GGT with biopsy outcomes. CK-18[M30] was measured in all studies except EMMINENCE where CK-18[M651 was reported. These associations were assessed at an individual cohort level (within treatment group), as well as based on the treatment effect. Percent change from baseline in liver injury makers and biomarkers was used as the predictor when examining the associations in the individual cohorts with outcomes while the treatment ratio, the ratio of active to placebo with respect to the relative changes from baseline, was used as the predictor when assessing the association with the treatment effect on outcomes. Standardized mean changes (mean/SD) or standardized mean treatment differences (mean difference/pooled SD) were used for continuous outcomes and Freeman-Tukey double arcsine transformed proportions or log odds ratios were used for dichotomous outcomes. Meta-regression results were computed using the metafor package available in R. P-values <0.05 were considered statistically significant.
From the meta-regression results, ranks for the association with responses and treatment effects for each histologic outcome (changes in ballooning, inflammation, steatosis, and fibrosis; NASH resolution without worsening of fibrosis, and fibrosis improvement without worsening of NAS) were assigned across seven biomarkers (AST, GGT, HbA1c, insulin, CK-18, ELF, and alkaline phosphatase) for both the slope and the mediator p-value (ranks 1-7, with 7 assigned to the biomarker with the greatest slope or lowest p-value). An average rank across all outcomes was then assigned to each biomarker. […]

[7] = GEORGESCU trial, Telmisartan 20 mg
[8] = GEORGESCU, 20 mg, follow-up 20 months
[9] = LEUSCHNER trial, UDCA 23-28 mg/kg/day
[10] = LEUSCHNER, 23-28 mg/kg/day, follow-up 18 months
[11] = GEORGESCU trial, Valsartan 80 mg
[12] = GEORGESCU, 80 mg, follow-up 20 months
[13] = PIVENS, Vitamin E arm, follow-up 22 months

Compound: CCCc1nc2c(C)cc(-c3nc4ccccc4n3C)cc2n1Cc1ccc(-c2ccccc2C(=O)O)cc1 [Telmisartan]
- Change from Baseline, mean: Ballooning [1, 7]: −0.58
- Change from Baseline, mean: Fibrosis [1, 7]: −0.75
- Change from Baseline, mean: Inflammation [1, 7]: −0.36
- Change from Baseline, mean: Steatosis [1, 7]: −0.50
- % Change from Baseline ALT [2, 8]: −30.29%
- % Change from Baseline AST [2, 8]: −34.64%
- % Change from Baseline GGT [2, 8]: −2.83%

Compound: C[C@H](CCC(=O)O)[C@H]1CC[C@H]2[C@@H]3[C@@H](O)C[C@@H]4C[C@H](O)CC[C@]4(C)[C@H]3CC[C@]12C [UDCA]
- Change from Baseline, mean: Ballooning [1, 9]: −0.16
- Change from Baseline, mean: Inflammation [1, 9]: −0.51
- Change from Baseline, mean: Steatosis [1, 9]: −0.55
- % Change from Baseline ALT [2, 10]: −40.55%
- % Change from Baseline AST [2, 10]: −27.95%
- % Change from Baseline Alk Phos [2, 10]: −6.376%
- % Change from Baseline GGT [2, 10]: −59.94%

Compound: CCCCC(=O)N(Cc1ccc(-c2ccccc2-c2nnn[nH]2)cc1)[C@H](C(=O)O)C(C)C [Valsartan]
- Change from Baseline, mean: Ballooning [1, 11]: −0.11
- Change from Baseline, mean: Fibrosis [1, 11]: −0.31
- Change from Baseline, mean: Inflammation [1, 11]: 0.08
- Change from Baseline, mean: Steatosis [1, 11]: −0.34
- % Change from Baseline ALT [2, 12]: −23.22%
- % Change from Baseline AST [2, 12]: −18.82%
- % Change from Baseline GGT [2, 12]: −20.60%

Compound: COc1cccc(C(O)COc2ccc(CC3SC(=O)NC3=O)cc2)c1 (centres unmarked) [primary metabolite of MSDC-0602]
- reduction in binding affinity for PPARγ compared to pioglitazone [3]: more than fifty-fold
- binding to the MPC [4]: maintain, and in some cases improve
- share of the combined exposure [5]: more than 90%

Compound: CC(C)c1cc(Oc2c(Cl)cc(-n3nc(C#N)c(=O)[nH]c3=O)cc2Cl)n[nH]c1=O [resmetiron, reference compound]
- treatment effect on the surrogate endpoint (weighted average of changes in AST, CK-18, HbA1c) [6]: largest treatment effects

Compound: Vitamin E
- Change from Baseline, mean: Ballooning ([1]; PIVENS trial, Vitamin E): −0.30
- Change from Baseline, mean: Fibrosis ([1]; PIVENS trial, Vitamin E): −0.30
- Change from Baseline, mean: Inflammation ([1]; PIVENS trial, Vitamin E): −0.60
- Change from Baseline, mean: Steatosis ([1]; PIVENS trial, Vitamin E): −0.70
- NASH Resolution ([1]; PIVENS trial, Vitamin E): 30/84
- % Change from Baseline ALT [2, 13]: −43.02%
- % Change from Baseline AST [2, 13]: −36.10%
- % Change from Baseline Alk Phos [2, 13]: −12.08%
- % Change from Baseline GGT [2, 13]: −25.00%
- % Change from Baseline Insulin [2, 13]: 2.73%
